For data set [1], the system named is Aβ in 3xTg AD mouse brain. The data set is described as follows: Immunofluorescence staining of Aβ in brain of 3xTg AD mice. The following applies: 150 mg/kg/day in diet for four months. Format: in vivo. How it is done:
(§1) The triplex transgenic mouse model (3xTg-AD, APP Swedish, MAPT P301L, and PSEN1 M146V) was adopted as the AD model and bred at the laboratory animal center of National Cheng Kung University (NCKU), Tainan, Taiwan. The mice were housed in a room maintained on a 12 h light–dark cycle and fed ad libitum. Six-month old 3xTg-AD mice were used for animal experiments. Experimental procedures for handling the mice were in accordance with the guidelines of the Institutional Animal Care and Use Committee (IACUC) of NCKU. These mice develop plaques and tangles pathology. Aβ deposition is progressive, and deposition appears as early as nine months for triplex-Tg mice. […] The quantity of the diet consumed by the mice was determined daily. The concentration of curcumin and TML-6 in the diet was determined to be around 1.20 mg/g of diet after assaying by HPLC by the Development Center for the Biotechnology (DCB), Taipei, Taiwan.
(§2) Mice were anesthetized using pentobarbital (60 mg/kg, intravenous) and then transcardial perfusion was performed with 0.01 M PBS (pH 7.4). […] Images were captured by the TissureFAXS microscopy system and positive signals were quantified by TissueQuest software module (TissueGnostic, Vienne, Austria).

The test system of data set [2] is Aβ42 production in N2a/APPswe stable cells. The data set is described as follows: Aβ42 ELISA of culture medium. Format: cell-based, mouse. To be noted: 24 h. How it is done:
(§3) Extracellular levels of soluble Aβ40 and Aβ42 were determined by LEGEND MAX™ β-Amyloid x-40 and X-42 ELISA Kit (Biolegend, San Diego, CA, USA). Overexpression of the APP Swedish mutation (APPswe) in the N2a neuronblastoma cell line was called the N2a/APPswe cell line. N2a/APPswe stable cells were seeded at 8 × 10^5 cells in 6 cm dishes. After overnight incubation, the cells were treated with curcumin and TML-6 for 24 h. […] The culture supernatant was collected and centrifuged at 1500× g at 4 °C for 5 min to remove cells. The culture supernatants from various treatments were conducted to examine the Aβ levels according to the manufacturer’s instructions. The samples for the detection of soluble Aβ levels were diluted in the supernatant at a 1:10 dilution for this experiment. Levels of soluble Aβ were detected by measuring the OD at 620 nm (Molecular Devices, San Jose, CA, USA). The calculation of Aβ levels was based on the standard curves of Aβ40 and Aβ42, respectively.
Background: An ELISA detects its analyte on a solid surface through an enzyme-linked reagent.

The test system of data set [3] is Iba-1 (microglial activation marker) in 3xTg AD mouse hippocampus. The data set is described as follows: Immunofluorescence staining of Iba-1 in brain of 3xTg AD mice. It counts as in vivo. The following applies: 150 mg/kg/day in diet for four months. As to the method: as §1, §2
Data set [4] relates to phospho-mTOR in Huh-7 cells. The data set is described as follows: Western blotting of phospho-mTOR. Format: cell-based, human. The following applies: for phospho-mTOR suppression (Western blot, in words): Huh-7, 24 h. As to the method: (§4) After cells were seeded and treated with curcumin and TML-6 for 24 h, cells were washed with ice-cold PBS (Phosphate Buffered Saline) and lysed with 100 μL of RIPA cell lysis buffer (Pierce Biotechnology, Rockford, IL, USA) supplemented with protease and phosphatase inhibitors (Roche Diagnostics, Mannheim, Germany). Cell lysates were further cleaned by centrifugation at 14,000 rpm at 4 °C for 15 min. Protein concentration was determined using a Bradford assay (Bio-Rad, Hercules, CA, USA). For Western blot analysis, 20 μg of each sample was prepared for SDS-PAGE (SDS Poly-acrylamide-gel-electrophoresis) and denatured at 95 ℃ for 10 min. The samples prepared from total lysates were loaded and separated by SDS-PAGE (8% or 10%), and then transferred to PVDF membranes (pore size 0.45 μm; PerkinElmer, Waltham, MA, USA) by semi-dry transfer cell (Bio-Rad). After blocking with 5% skim milk in PBS-T (0.1% Tween-20), the membranes were hybridized with primary antibodies at 1/1000 dilution at 4 °C overnight. On the next day, membranes were washed with PBS-T followed by incubation with HRP-conjugated anti-mouse or anti-rabbit secondary antibody (DAKO, Santa Clara, CA, USA) at 1/5000 dilution at room temperature for 1 h as appropriate. Finally, the images were captured by Amersham Imager 600 (GE Healthcare Life Sciences, Marlborough, MA, USA) after being developed using the chemiluminescent HRP substrate (Millipore, Bedford, MA, USA). The primary antibodies used in this study were anti-APP, anti-NF-κB (Cell Signaling Technology, Danvers, MA, USA), anti-Apo E, anti-p-mTOR (Abcam, Cambridge, MA, USA).
(In western blotting, separated proteins are transferred to a membrane and probed.)

Another data set relates to N2a/APPswe stable cells. The data set is described as follows: Cell viability/morphology by micrographs during Aβ ELISA treatment. It counts as cell-based, mouse. To be noted: 24 h. How it is done:
as §3

A short description of data set [5]: Pharmacokinetic study after oral administration in SD rats. Format: in vivo, rat. How it is done:
In order to evaluate the bioavailability of curcumin and its analog TML-6, pharmacokinetic studies were commissioned and conducted by the Development Center for Biotechnology (DCB, Taipei, Taiwan). The kinetics of curcumin and TML-6 in blood were collected at 0.25, 0.5, 1, 2, 4, 6, 8 and 10 h after oral administration of curcumin and TML-6 at the dose of 150 mg/kg in male Sprague–Dawley Rats.

The subject of data set [6] is phospho-NF-κB in Huh-7 cells. The data set is described as follows: Western blotting of phosphorylated NF-κB. To be noted: 24 h, vs medium control. Format: cell-based, human. As to the method: as §4, with “Finally, the images were captured by Amersham Imager 600 (GE Healthcare Life Sciences, Marlborough, MA, USA) after being developed using the chemiluminescent HRP substrate (Millipore, Bedford, MA, USA). The primary antibodies used in this study were anti-APP, anti-NF-κB (Cell Signaling Technology, Danvers, MA, USA), anti-Apo E, anti-p-mTOR (Abcam, Cambridge, MA, USA).” left out

Where [7] appears, read: male, Sprague-Dawley, rat, in vivo, po, 150 mg/kg.

curcumin [reference compound]: the “Aβ expression in brain vs vehicle (in words)” value in data set [1] is reported as “trend of reduction but without significant differences”. The “Aβ42 level vs control (in words)” value in data set [2] (different doses up to 20 µg/mL) is on record as “increased to levels higher than those of the control”. In data set [3], the “Iba-1 expression vs vehicle (in words)” value is recorded as “no significant change”. Besides, the “phospho-mTOR suppression (Western blot, in words)” value in data set [4] was “suppressed in a dose-dependent manner”. In addition, the “highest dose, at which cytotoxicity was seen (micrographs)” value with N2a/APPswe stable cells worked out at 20 µg/mL. The “blood concentrations at each time point” value in data set [5] (SD rats, oral 150 mg/kg) is recorded as “not detectable”. For the same molecule, the “decrease of phosphorylated NF-κB level” value in data set [6] (10 µg/mL) is recorded as 35%.

As a reminder, the Cmax is the highest concentration seen after dosing. By MRT is commonly meant a mean duration of stay, worked out from the concentration-time curve. What is called Tmax is the time at which the peak concentration occurs. A word on the half-life: it is how long it takes for the measured level to halve. A low value points to fast loss. As a reminder, the AUC(0-t) is the area under the concentration-time curve up to a stated or last time point. High values mean high exposure, low ones low exposure. For the molecule `CCN(CC)C(=O)CC(C)(C(=O)/C=C/c1ccc(OC)c(OC)c1)C(=O)/C=C/c1ccc(OC)c(OC)c1` [TML-6], the “reduction of Aβ expression in brain vs vehicle control” value in data set [1] stood at 51%. For the same molecule, in data set [2] (3.14 µg/mL, culture medium), the “Aβ42 level, reduced to % as compared with control group” value is reported as roughly 80%. In addition, in data set [3], the “suppression of Iba-1 expression in hippocampus vs vehicle control” value turned out to be 50%. The “phospho-mTOR suppression (Western blot, in words)” value in data set [4] was “suppressed in all the concentrations”. The “potency of phospho-mTOR reduction relative to curcumin” value in data set [4] (TML-6 5.24 µg/mL gives same level as curcumin 20 µg/mL) is “about 4 fold”. In addition, in data set [4] (dose below IC50 (0.65~3.93 µg/mL), 24 h), the “average reduction of phospho-mTOR” value was “about 30%”. Also, the “highest dose, at which cytotoxicity was seen (micrographs)” value in the data set on N2a/APPswe stable cells was 4.19 µg/mL. In data set [5] (setting [7]), the Cmax was 35.9 ± 15.6 ng/mL, the mean residence time MRT was 3.91 ± 0.62 h, the Tmax is 3.67 ± 2.08 h and the half-life is 1.27 ± 0.51 h. For the same molecule, the exposure AUC(0-t) in data set [5] (male, Sprague-Dawley, rat, in vivo, po, 150 mg/kg, AUC(0-8)) was 181 ± 78.7 ng·h/mL. The molecule further came in with an AUC(0-t) in data set [5] (male, Sprague-Dawley, rat, in vivo, po, 150 mg/kg, AUC(0-last)) of 177 ± 76.8 ng·h/mL. In addition, in data set [6] (1.96 µg/mL), the “decrease of phosphorylated NF-κB level” value is recorded as “about 50%”.

The values above are taken from PMC7432838, “A Curcumin Analog Exhibits Multiple Biologic Effects on the Pathogenesis of Alzheimer’s Disease and Improves Behavior, Inflammation, and β-Amyloid Accumulation in a Mouse Model” (International Journal of Molecular Sciences, 2020).
